Experimental findings from patent US20140350050A1, “PYRIDINE COMPOUNDS AS INHIBITORS OF KINASE” (TELIGENE LTD., priority 2011, published 2014) are described below.

Data set [1] deals with ALK kinase (Homo sapiens, UniProt Q9UM73). Kind of data set: ALK kinase assay. In kind it is biochemical. To be noted: ALK kinase assay; read-out: ALK (IC50 grading). The method, then:
An in vitro assay which determines the ability of a test compound to inhibit ALK kinase. a) kinase-tagged T7 phage strains were prepared in an E. coli host derived from the BL21 strain. E. coli were grown to log-phase and infected with T7 phage and incubated with shaking at 32° C. until lysis. The lysates were centrifuged and filtered to remove cell debris. The remaining kinases were produced in HEK-293 cells and subsequently tagged with DNA for qPCR detection. […] The liganded beads were blocked with excess biotin and washed with blocking buffer (SeaBlock (Pierce), 1% BSA, 0.05% Tween 20, 1 mM DTT) to remove unbound ligand and to reduce non-specific binding. […] All reactions were performed in polystyrene 96-well plates in a final volume of 0.135 ml. […] The kinase concentration in the eluates was measured by qPCR. […]
b) An alternative method to conduct the kinase assay with the following condition and procedure: Reagent: Base Reaction buffer; 20 mM Hepes (pH 7.5), 10 mM MgCl2, 1 mM EGTA, 0.02% Brij35, 0.02 mg/ml BSA, 0.1 mM Na3VO4, 2 mM DTT, 1% DMSO.
1. Preparing indicated substrate in freshly prepared Base Reaction Buffer
2. Delivering any required cofactors to the substrate solution above
3. Delivering indicated kinase into the substrate solution and gently mix
4. Delivering compounds in DMSO into the kinase reaction mixture
5. Delivering ^33P-ATP (specific activity 0.01 μCi/μl final) into the reaction mixture to initiate the reaction.
6. Incubating kinase reaction for 120 min. at room temperature
7. Reactions are spotted onto P81 ion exchange paper (Whatman #3698-915)
8. Washing filters extensively in 0.75% Phosphoric acid. […]
c) An alternative method to conduct the kinase assay with the following condition and procedure: The assay was performed using Kinase-Glo Plus luminescence kinase assay kit (Promega). It measures kinase activity by quantitating the amount of ATP remaining in solution following a kinase reaction. The luminescent signal from the assay is correlated with the amount of ATP present and is inversely correlated with the amount of kinase activity.
The compound were diluted in 10% DMSO and 5 μl of the dilution was added to a 50 μl reaction so that the final concentration of DMSO is 1% in all of reactions. All of the enzymatic reactions were conducted at 30° C. for 40 minutes. The 50 μl reaction mixture contains 40 mM Tris, pH 7.4, 10 mM MgCl2, 0.1 mg/ml BSA, 1 mM DTT, 0.2 mg/ml substrate peptide, 10 μM ATP and ALK (Table 2.3.1). After the enzymatic reaction, 50 μl of Kinase-Glo Plus Luminescence kinase assay solution (Promega) was added to each reaction and incubate the plate for 5 minutes at room temperature. Luminescence signal was measured using a BioTek Synergy 2 microplate reader. ALK activity assays were performed in duplicate at each concentration. The luminescence data were analyzed using the computer software, Graphpad Prism. The difference between luminescence intensities in the absence of ALK (Lut) and in the presence of ALK (Luc) was defined as 100% activity (Lut−Luc). Using luminescence signal (Lu) in the presence of the compound, % activity was calculated as % activity={(Lut−Lu)/(Lut−Luc)}×100%, where Lu=the luminescence intensity in the presence of the compound (all percent activities below zero were shown zero in the table). The values of % activity versus a series of compound concentrations were then plotted using non-linear regression analysis of Sigmoidal dose-response curve generated with the equation Y=B+(T−B)/1+10^((Log EC50−X)×Hill Slope), where Y=percent activity, B=minimum percent activity, T=maximum percent activity, X=logarithm of compound and Hill Slope=slope factor or Hill coefficient. The IC50 value was determined by the concentration causing a half-maximal percent activity.

For data set [2], the target named is T1, BAF3-EML4-ALK stable cell line (Homo sapiens, UniProt Q9UM73).
T1 construct: fused on or other part: Q9HC35 (Echinoderm microtubule-associated protein-like 4)
Kind of data set: BAF3-EML4-ALK cell assay (MTT cell proliferation). The class given is cell-based. To be noted: 72 hours, read-out: BAF3-EML4-ALK Cell (IC50 grading). The method, then:
BAF3-EML4-ALK Cell Assay:
A method of establishing BAF3-EML4-ALK stable cell line: Transfer 5×10^6 BAF3 cells to a new tube, pellet the cells, and remove PBS by aspiration.; Resuspend the cells in 1 ml electroporation buffer, this provides 5×10^6 of cells; Transfer 200 μl of cell suspension to EP tube, add 5 ug DNA, flip and place it on ice for 10 min; Pipet the 200 μl cell suspension into 2 mm electroporation cuvette; Place the cuvette into shockpod, close the lid, and press the PULSE button; Set parameters: Expentional decay pulse: VOL=200 V; CAP=900 uF, RES=1000Ω; Transfer all cells from electroporation cuvette to 6 well plate, adding 2 ml DMEMF12 containing 5 ng/ml IL3, 24 h later, replace the medium with DMEM F12 containing 2 μg/ml blasticidin S and 5 ng/ml IL3, maintain for 3 days; change the medium with DMEM F12 containing 2 ug/ml blasticidin S and 2.5 ng/ml IL3, maintain 3 days; change the medium with DMEM F12 containing 2 ug/Ml blasticidin S, maintain to culture.
MTT Cell proliferation assay: 5×10^3 per well cell with 100 μl medium was seeded in 96-well plate; 24 hours later, 100 μl fresh medium with various concentration of compounds; After the cells were treated by compounds for 72 hours, add 20 μl MTT (5 mg/ml) into each wells; The plate is incubated at 37° C. for 4 hours; Centrifuge the plate at 800 g for 10 mins, Aspirated the medium, add 150 μl DMSO into each well. Shake plates gently for 10 mins, Measure the absorbance at 570 nm on plate reader; IR=(WC−WT)/WC.

A short description of data set [3]: PK (pharmacokinetic) study in rat, cassette dosing. The conditions noted are these: male, Wistar, plasma. The class given is in vivo. As to the method: A representative protocol for the PK (pharmacokinetic) is as followed: Animals used were Wistar rat, male and weight about 300-359 grams. Compound 21 and 22 were given either IV or oral to the same animals by cassette dosing. The dose for each compound is 1 mg/kg (volume 5 ml/kg) IV and 2 mg/kg (volume 10 ml/kg) oral. The formulation for IV was in PBS, the pH is adjusted by dilute HCl until compounds were totally dissolved. 0.5% Na-CMC suspension was used for the oral formulation. Sample collection: for IV route, plasma sample were collected at the time point 0.083, 0.25, 0.5, 1, 1.5, 2, 4, 6, 8, 12, 24 h. For oral route, plasma sample were collected at the time point 0.167, 0.33, 0.5, 1, 2, 4, 6, 8, 12, 24 h. Analysis: LC-MS/MS is used to calculate PK parameters: t1/2, tmax, Cmax, Vss and AUC etc.

Chain of ALK kinase (Q9UM73 19-1620): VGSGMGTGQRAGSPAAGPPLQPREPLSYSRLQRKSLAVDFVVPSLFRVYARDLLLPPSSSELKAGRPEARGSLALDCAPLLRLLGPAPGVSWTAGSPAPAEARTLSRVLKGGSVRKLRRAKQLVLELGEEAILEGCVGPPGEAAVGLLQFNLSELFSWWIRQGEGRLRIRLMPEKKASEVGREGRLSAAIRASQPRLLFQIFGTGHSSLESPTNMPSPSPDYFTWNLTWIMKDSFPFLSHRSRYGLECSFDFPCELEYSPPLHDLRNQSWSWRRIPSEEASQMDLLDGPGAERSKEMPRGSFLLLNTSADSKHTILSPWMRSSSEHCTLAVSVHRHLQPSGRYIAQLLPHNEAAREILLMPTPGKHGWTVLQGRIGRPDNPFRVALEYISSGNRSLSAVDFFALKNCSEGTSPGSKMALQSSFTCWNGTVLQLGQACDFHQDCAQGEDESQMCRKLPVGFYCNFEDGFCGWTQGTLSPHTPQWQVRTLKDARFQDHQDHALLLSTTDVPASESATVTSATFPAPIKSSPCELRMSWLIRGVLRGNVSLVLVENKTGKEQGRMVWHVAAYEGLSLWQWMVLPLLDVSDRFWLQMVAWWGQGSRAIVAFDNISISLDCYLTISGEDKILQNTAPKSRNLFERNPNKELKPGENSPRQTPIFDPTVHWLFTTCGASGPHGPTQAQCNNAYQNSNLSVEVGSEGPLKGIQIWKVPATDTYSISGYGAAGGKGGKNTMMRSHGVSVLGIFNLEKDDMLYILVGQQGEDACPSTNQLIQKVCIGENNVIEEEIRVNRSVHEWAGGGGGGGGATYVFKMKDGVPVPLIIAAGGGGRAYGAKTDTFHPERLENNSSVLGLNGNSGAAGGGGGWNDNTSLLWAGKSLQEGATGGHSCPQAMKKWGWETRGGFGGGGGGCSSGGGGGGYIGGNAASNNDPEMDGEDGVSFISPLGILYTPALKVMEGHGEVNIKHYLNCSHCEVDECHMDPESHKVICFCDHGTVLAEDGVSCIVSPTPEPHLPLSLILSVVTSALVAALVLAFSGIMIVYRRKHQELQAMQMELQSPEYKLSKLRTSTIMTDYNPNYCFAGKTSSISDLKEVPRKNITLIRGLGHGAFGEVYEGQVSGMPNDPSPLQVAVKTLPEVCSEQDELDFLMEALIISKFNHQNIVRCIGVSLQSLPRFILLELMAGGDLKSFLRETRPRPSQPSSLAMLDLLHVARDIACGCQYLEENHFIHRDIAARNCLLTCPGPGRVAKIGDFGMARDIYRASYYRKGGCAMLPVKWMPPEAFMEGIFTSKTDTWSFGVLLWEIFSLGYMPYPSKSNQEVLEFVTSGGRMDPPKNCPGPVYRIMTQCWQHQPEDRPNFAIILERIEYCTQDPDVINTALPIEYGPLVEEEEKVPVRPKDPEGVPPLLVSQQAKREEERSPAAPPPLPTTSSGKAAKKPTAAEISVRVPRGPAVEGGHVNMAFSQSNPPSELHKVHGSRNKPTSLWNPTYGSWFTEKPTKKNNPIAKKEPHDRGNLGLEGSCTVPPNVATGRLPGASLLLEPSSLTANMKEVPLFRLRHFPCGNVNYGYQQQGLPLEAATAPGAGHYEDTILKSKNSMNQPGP
T1 sequence (Q9UM73 whole entry, change not shown, the tested form may be a part): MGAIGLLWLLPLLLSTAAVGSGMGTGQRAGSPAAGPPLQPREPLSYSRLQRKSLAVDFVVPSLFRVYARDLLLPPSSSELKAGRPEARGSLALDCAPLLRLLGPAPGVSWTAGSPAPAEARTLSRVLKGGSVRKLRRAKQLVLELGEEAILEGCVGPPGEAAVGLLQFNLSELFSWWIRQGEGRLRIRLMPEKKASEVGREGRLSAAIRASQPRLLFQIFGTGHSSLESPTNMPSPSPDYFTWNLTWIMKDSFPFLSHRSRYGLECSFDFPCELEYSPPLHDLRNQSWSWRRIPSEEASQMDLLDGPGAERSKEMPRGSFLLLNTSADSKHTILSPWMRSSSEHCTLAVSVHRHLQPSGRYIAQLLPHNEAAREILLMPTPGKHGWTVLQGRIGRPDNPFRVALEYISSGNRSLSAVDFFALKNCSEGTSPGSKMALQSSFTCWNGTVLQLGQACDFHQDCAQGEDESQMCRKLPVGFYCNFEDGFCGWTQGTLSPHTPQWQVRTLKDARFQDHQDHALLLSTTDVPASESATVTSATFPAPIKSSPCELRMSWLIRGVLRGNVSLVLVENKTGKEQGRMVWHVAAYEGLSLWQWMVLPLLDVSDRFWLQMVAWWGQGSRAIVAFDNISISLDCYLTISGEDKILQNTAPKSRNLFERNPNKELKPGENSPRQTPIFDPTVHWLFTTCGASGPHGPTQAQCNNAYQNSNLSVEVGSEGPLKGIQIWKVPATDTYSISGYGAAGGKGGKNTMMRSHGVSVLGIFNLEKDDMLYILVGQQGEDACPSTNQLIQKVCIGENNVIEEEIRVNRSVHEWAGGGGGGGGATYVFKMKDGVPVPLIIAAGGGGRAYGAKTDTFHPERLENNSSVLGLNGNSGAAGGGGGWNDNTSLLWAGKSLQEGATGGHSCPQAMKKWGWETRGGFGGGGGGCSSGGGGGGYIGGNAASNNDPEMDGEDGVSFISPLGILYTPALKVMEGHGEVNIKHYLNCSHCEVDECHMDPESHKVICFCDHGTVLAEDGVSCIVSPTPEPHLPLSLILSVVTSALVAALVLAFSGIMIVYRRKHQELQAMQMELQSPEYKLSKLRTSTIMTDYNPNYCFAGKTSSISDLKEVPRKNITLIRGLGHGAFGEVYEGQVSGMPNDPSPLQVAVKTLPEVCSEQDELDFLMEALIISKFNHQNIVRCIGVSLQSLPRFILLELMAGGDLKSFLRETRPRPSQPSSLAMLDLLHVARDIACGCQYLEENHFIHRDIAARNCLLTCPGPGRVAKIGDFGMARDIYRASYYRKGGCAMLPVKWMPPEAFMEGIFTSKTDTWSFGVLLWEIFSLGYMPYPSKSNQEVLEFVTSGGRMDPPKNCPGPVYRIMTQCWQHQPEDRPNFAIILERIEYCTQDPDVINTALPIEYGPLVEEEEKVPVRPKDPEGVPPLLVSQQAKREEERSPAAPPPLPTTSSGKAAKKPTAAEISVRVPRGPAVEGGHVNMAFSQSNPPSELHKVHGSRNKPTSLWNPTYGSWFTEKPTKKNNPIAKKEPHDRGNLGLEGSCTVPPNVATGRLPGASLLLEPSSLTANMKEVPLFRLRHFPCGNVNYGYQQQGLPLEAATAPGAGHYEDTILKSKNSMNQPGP

Broadly, the IC50 is the point on the concentration scale where inhibition reaches its midpoint. Turning to `CCN1CCC(n2cc(-c3cnc(N)c(OC(C)c4c(Cl)ccc(F)c4Cl)c3)cn2)CC1` (centres unmarked) [Compound 7, 3-(1-(2,6-dichloro-3-fluorophenyl)ethoxy)-5-(1-(1-ethylpiperidin-4-yl)-1H-pyrazol-4-yl)pyridin-2-amine], the IC50 in data set [1] was at most 0.1 µM. Moreover, the GI50 in data set [2] was at most 0.1 µM.

In the case of `CC(=O)Nc1ncc(-c2cnn(C3CCNCC3)c2)cc1OC(C)c1c(Cl)ccc(F)c1Cl` (centres unmarked) [Compound 9, N-(3-(1-(2,6-dichloro-3-fluorophenyl)ethoxy)-5-(1-(piperidin-4-yl)-1H-pyrazol-4-yl)pyridin-2-yl)acetamide], the IC50 in data set [1] is at most 0.1 µM. Further, in data set [2], the GI50 was at most 0.1 µM.

Consider `CCN1CCC(n2cc(-c3cnc(NC(C)=O)c(OC(C)c4c(Cl)ccc(F)c4Cl)c3)cn2)CC1` (centres unmarked) [Compound 10, N-(3-(1-(2,6-dichloro-3-fluorophenyl)ethoxy)-5-(1-(1-ethylpiperidin-4-yl)-1H-pyrazol-4-yl)pyridin-2-yl)acetamide], for which the IC50 in data set [1] fell in the range of 0.1 to 1 µM. Also, the GI50 in data set [2] was in the range of 0.1 to 1 µM.

Turning to `CCNc1ncc(-c2cnn(C3CCNCC3)c2)cc1OC(C)c1c(Cl)ccc(F)c1Cl` (centres unmarked) [Compound 11, 3-(1-(2,6-dichloro-3-fluorophenyl)ethoxy)-N-ethyl-5-(1-(piperidin-4-yl)-1H-pyrazol-4-yl)pyridin-2-amine], in data set [1], the IC50 is at most 1 µM. Moreover, the GI50 in data set [2] is at most 1 µM.

As for `CCCNc1ncc(-c2cnn(C3CCNCC3)c2)cc1OC(C)c1c(Cl)ccc(F)c1Cl` (centres unmarked) [Compound 12, 3-(1-(2,6-dichloro-3-fluorophenyl)ethoxy)-5-(1-(piperidin-4-yl)-1H-pyrazol-4-yl)-N-propylpyridin-2-amine], in data set [1], the IC50 is at most 1 µM. Further, the GI50 in data set [2] is at most 1 µM.

With `CC(=O)Nc1ncc(-c2cnn(C3CCNCC3)c2)cc1O[C@@H](C)c1c(Cl)ccc(F)c1Cl` [Compound 13, (S)—N-(3-(1-(2,6-dichloro-3-fluorophenyl)ethoxy)-5-(1-(piperidin-4-yl)-1H-pyrazol-4-yl)pyridin-2-yl)acetamide], the IC50 in data set [1] fell in the range of 0.1 to 1 µM. In addition, the GI50 in data set [2] was at most 1 µM.

With `C[C@H](Oc1cc(-c2cnn(C3CCN(C)CC3)c2)cnc1N)c1c(Cl)ccc(F)c1Cl` [Compound 14, (S)-3-(1-(2,6-dichloro-3-fluorophenyl)ethoxy)-5-(1-(1-methylpiperidin-4-yl)-1H-pyrazol-4-yl)pyridin-2-amine], in data set [1], the IC50 lay in the range of 0.1 to 1 µM. For the same compound, in data set [2], the GI50 is at most 1 µM.

Take `[2H]C([2H])([2H])N1CCC(n2cc(-c3cnc(N)c(O[C@@H](C)c4c(Cl)ccc(F)c4Cl)c3)cn2)CC1` [Compound 15, (S)-3-(1-(2,6-dichloro-3-fluorophenyl)ethoxy)-5-(1-(1-d3-methyl-piperidin-4-yl)-1H-pyrazol-4-yl)pyridin-2-amine]: the IC50 in data set [1] lay in the range of 0.1 to 1 µM. In addition, the GI50 in data set [2] was at most 1 µM.

For the compound `CCN1CCC(n2cc(-c3cnc(N)c(O[C@@H](C)c4c(Cl)ccc(F)c4Cl)c3)cn2)CC1` [Compound 16, (S)-3-(1-(2,6-dichloro-3-fluorophenyl)ethoxy)-5-(1-(1-ethylpiperidin-4-yl)-1H-pyrazol-4-yl)pyridin-2-amine], in data set [1], the IC50 lay within 0.1 to 1 µM. Also, in data set [2], the GI50 is at most 1 µM.

Take `[2H]C([2H])([2H])C([2H])([2H])N1CCC(n2cc(-c3cnc(N)c(O[C@@H](C)c4c(Cl)ccc(F)c4Cl)c3)cn2)CC1` [Compound 17, (S)-3-(1-(2,6-dichloro-3-fluorophenyl)ethoxy)-5-(1-(1-d5-ethyl-piperidin-4-yl)-1H-pyrazol-4-yl)pyridin-2-amine]: the IC50 in data set [1] lay in the range of 0.1 to 1 µM. Further, in data set [2], the GI50 was at most 1 µM.

In the case of `C[C@@H](Oc1cc(-c2cnn(C3CCN(C)CC3)c2)cnc1N)c1c(Cl)ccc(F)c1Cl` [Compound 19, (R)-3-(1-(2,6-dichloro-3-fluorophenyl)ethoxy)-5-(1-(1-methylpiperidin-4-yl)-1H-pyrazol-4-yl)pyridin-2-amine], the IC50 in data set [1] was at most 0.1 µM. Further, in data set [2], the GI50 was at most 0.1 µM.

By AUC(0-inf) is commonly meant the area under the concentration-time curve extrapolated to infinity. Read a high AUC(0-inf) as more exposure. As usually defined, the AUC(0-t) is exposure summed from dosing to a finite time, without extrapolation to infinity. A higher AUC(0-t) goes with high exposure. As a reminder, the Cmax is the highest concentration seen after dosing. The MRT is a mean duration of stay, worked out from the concentration-time curve. In general, Tmax refers to the time at which the peak concentration occurs. In general, clearance refers to the rate of elimination divided by the concentration. A high value points to a high capacity for elimination. By half-life is commonly meant the time in which the quantity being followed falls by half. A lower half-life goes with fast loss. Usually bioavailability stands for the share of a dose that reaches the circulation, judged against a reference dose that is usually intravenous. As for `CCN1CCC(n2cc(-c3cnc(N)c(O[C@H](C)c4c(Cl)ccc(F)c4Cl)c3)cn2)CC1` [Compound 21, (R)-3-(1-(2,6-dichloro-3-fluorophenyl)ethoxy)-5-(1-(1-ethylpiperidin-4-yl)-1H-pyrazol-4-yl)pyridin-2-amine], the IC50 in data set [1] was at most 0.1 µM. In data set [3] (IV cassette 1 mg/kg), the AUC(0-inf) stood at 0.443 µg·h/mL, the AUC(0-t) came out at 0.442 µg·h/mL, the Cmax was 0.317 µg/mL and the MRT was 2.89 h. In data set [3] (IV cassette 1 mg/kg), the Tmax was found to be 0.083 h, the clearance is 2.26 L/h/kg and the half-life was 2.89 h. Moreover, in data set [3] (oral cassette 2 mg/kg), the AUC(0-inf) was found to be 0.154 µg·h/mL, the AUC(0-t) was determined as 0.148 µg·h/mL, the peak level (Cmax) was 0.0229 µg/mL and the MRT was determined as 4.97 h. Moreover, in data set [3] (oral cassette 2 mg/kg), the Tmax is 4 h and the half-life is 2.99 h. The bioavailability in data set [3] (oral cassette 2 mg/kg vs IV 1 mg/kg, read-out: F (bioavailability)) was found to be 16.8%. The GI50 in data set [2] was at most 0.1 µM.
